# Measurements as given in US20120219615A1, “Therapeutic Use of a TLR Agonist and Combination Therapy” (The Trustees of the University of Pennsylvania, priority 2010, published 2012).
# System: G-CSF, MCP-1, MIP-1β, TNFα
# Experiment: Phase I clinical study: pharmacodynamic response, plasma immune mediators (MAP)
# Format: in vivo
# Details: human, s.c., first dose
# Procedure: Study Procedures: VTX-2337 was administered weekly via subcutaneous injection on Days 1, 8, and 15 of a 28-day dosing cycle for two cycles. Using a modified Fibonacci dose-escalation scheme, successive cohorts received doses ranging from 0.1 mg/m^2 to 3.9 mg/m^2 of VTX-2337. Plasma samples were collected for pharmacokinetic analysis after the first dose of the first treatment cycle and for pharmacodynamic analyses after the first dose of the first and second treatment cycles.
# To evaluate the pharmacodynamic (PD) response to VTX-2337, blood was collected at 0, 4, 8, 24 hours after subcutaneous administration of the first dose of the first cycle of VTX-2337. Plasma levels of immune mediators were quantified using the human multiple analyte panel (MAP), version 1.8 (Rules Based Medicine). […] Levels of mediators in plasma collected from 9 healthy volunteers are shown for comparison to the oncology population. […]
compound,measurement,setting,value
"CCCN(CCC)C(=O)C1=Cc2ccc(-c3ccc(C(=O)N4CCCC4)cc3)cc2N=C(N)C1 [VTX-2337, 2-amino-N,N-dipropyl-8-(4-(pyrrolidine-1-carbonyl)phenyl)-3H-benzo[b]azepine-4-carboxamide]",TNFα plasma level,"Cohort 4 (0.8 mg/m^2), 24 Hr",17.5 ± 8.7 pg/mL
same,G-CSF plasma level,"Cohort 5 (1.3 mg/m^2), 0 Hr",5.0 ± 0.3 pg/mL
same,MCP-1 plasma level,"Cohort 5 (1.3 mg/m^2), 0 Hr",227 ± 79.8 pg/mL
same,MIP-1β plasma level,"Cohort 5 (1.3 mg/m^2), 0 Hr",182 ± 36.9 pg/mL
same,TNFα plasma level,"Cohort 5 (1.3 mg/m^2), 0 Hr",9.3 ± 4.1 pg/mL
same,G-CSF plasma level,"Cohort 5 (1.3 mg/m^2), 4 Hr",20.5 ± 24.7 pg/mL
same,MCP-1 plasma level,"Cohort 5 (1.3 mg/m^2), 4 Hr",911 ± 951 pg/mL
same,MIP-1β plasma level,"Cohort 5 (1.3 mg/m^2), 4 Hr",543 ± 477 pg/mL
same,TNFα plasma level,"Cohort 5 (1.3 mg/m^2), 4 Hr",14.9 ± 12.5 pg/mL
same,G-CSF plasma level,"Cohort 5 (1.3 mg/m^2), 8 Hr",196 ± 145 pg/mL
same,MCP-1 plasma level,"Cohort 5 (1.3 mg/m^2), 8 Hr",954 ± 638 pg/mL
same,MIP-1β plasma level,"Cohort 5 (1.3 mg/m^2), 8 Hr",688 ± 635 pg/mL
same,TNFα plasma level,"Cohort 5 (1.3 mg/m^2), 8 Hr",21.6 ± 13.3 pg/mL
same,G-CSF plasma level,"Cohort 5 (1.3 mg/m^2), 24 Hr",30.8 ± 10.4 pg/mL
same,MCP-1 plasma level,"Cohort 5 (1.3 mg/m^2), 24 Hr",246 ± 158 pg/mL
same,MIP-1β plasma level,"Cohort 5 (1.3 mg/m^2), 24 Hr",228 ± 70.1 pg/mL
same,TNFα plasma level,"Cohort 5 (1.3 mg/m^2), 24 Hr",15.3 ± 4.2 pg/mL
same,G-CSF plasma level,"Cohort 6 (2.0 mg/m^2), 0 Hr",9.9 ± 8.2 pg/mL
same,MCP-1 plasma level,"Cohort 6 (2.0 mg/m^2), 0 Hr",265 ± 161 pg/mL
same,MIP-1β plasma level,"Cohort 6 (2.0 mg/m^2), 0 Hr",136 ± 28.3 pg/mL
same,TNFα plasma level,"Cohort 6 (2.0 mg/m^2), 0 Hr",4.4 ± 1.6 pg/mL
same,G-CSF plasma level,"Cohort 6 (2.0 mg/m^2), 4 Hr",14.0 ± 4.3 pg/mL
same,MCP-1 plasma level,"Cohort 6 (2.0 mg/m^2), 4 Hr",247 ± 80.5 pg/mL
same,MIP-1β plasma level,"Cohort 6 (2.0 mg/m^2), 4 Hr",196 ± 62.5 pg/mL
same,TNFα plasma level,"Cohort 6 (2.0 mg/m^2), 4 Hr",8.4 ± 1.5 pg/mL
same,G-CSF plasma level,"Cohort 6 (2.0 mg/m^2), 8 Hr",134 ± 149 pg/mL
same,MCP-1 plasma level,"Cohort 6 (2.0 mg/m^2), 8 Hr",722 ± 224 pg/mL
same,MIP-1β plasma level,"Cohort 6 (2.0 mg/m^2), 8 Hr",289 ± 111 pg/mL
same,TNFα plasma level,"Cohort 6 (2.0 mg/m^2), 8 Hr",10.0 ± 2.3 pg/mL
same,G-CSF plasma level,"Cohort 6 (2.0 mg/m^2), 24 Hr",42.2 ± 31.6 pg/mL
same,MCP-1 plasma level,"Cohort 6 (2.0 mg/m^2), 24 Hr",320 ± 244 pg/mL
same,MIP-1β plasma level,"Cohort 6 (2.0 mg/m^2), 24 Hr",155 ± 26 pg/mL
same,TNFα plasma level,"Cohort 6 (2.0 mg/m^2), 24 Hr",10.0 ± 0.2 pg/mL
same,G-CSF plasma level,"Cohort 7 (2.8 mg/m^2), 0 Hr",7.4 ± 3.2 pg/mL
same,MCP-1 plasma level,"Cohort 7 (2.8 mg/m^2), 0 Hr",250 ± 110 pg/mL
same,MIP-1β plasma level,"Cohort 7 (2.8 mg/m^2), 0 Hr",136 ± 22 pg/mL
same,TNFα plasma level,"Cohort 7 (2.8 mg/m^2), 0 Hr",6.1 ± 1.8 pg/mL
same,G-CSF plasma level,"Cohort 7 (2.8 mg/m^2), 4 Hr",12.4 ± 2.4 pg/mL
same,MCP-1 plasma level,"Cohort 7 (2.8 mg/m^2), 4 Hr",719 ± 433 pg/mL
same,MIP-1β plasma level,"Cohort 7 (2.8 mg/m^2), 4 Hr",517 ± 305 pg/mL
same,TNFα plasma level,"Cohort 7 (2.8 mg/m^2), 4 Hr",10.9 ± 1.4 pg/mL
same,G-CSF plasma level,"Cohort 7 (2.8 mg/m^2), 8 Hr",553 ± 246 pg/mL
same,MCP-1 plasma level,"Cohort 7 (2.8 mg/m^2), 8 Hr",2043 ± 760 pg/mL
same,MIP-1β plasma level,"Cohort 7 (2.8 mg/m^2), 8 Hr",646 ± 216 pg/mL
same,TNFα plasma level,"Cohort 7 (2.8 mg/m^2), 8 Hr",12.8 ± 2.5 pg/mL
same,G-CSF plasma level,"Cohort 7 (2.8 mg/m^2), 24 Hr",59.0 ± 31.7 pg/mL
same,MCP-1 plasma level,"Cohort 7 (2.8 mg/m^2), 24 Hr",273 ± 109 pg/mL
same,MIP-1β plasma level,"Cohort 7 (2.8 mg/m^2), 24 Hr",152 ± 82 pg/mL
same,TNFα plasma level,"Cohort 7 (2.8 mg/m^2), 24 Hr",8.8 ± 4.1 pg/mL
same,G-CSF plasma level,"Cohort 8 (3.9 mg/m^2), 0 Hr",29.1 ± 55.8 pg/mL
same,MCP-1 plasma level,"Cohort 8 (3.9 mg/m^2), 0 Hr",249 ± 56 pg/mL
same,MIP-1β plasma level,"Cohort 8 (3.9 mg/m^2), 0 Hr",236 ± 111 pg/mL
same,TNFα plasma level,"Cohort 8 (3.9 mg/m^2), 0 Hr",14.9 ± 9.1 pg/mL
same,G-CSF plasma level,"Cohort 8 (3.9 mg/m^2), 4 Hr",83.3 ± 104.7 pg/mL
same,MCP-1 plasma level,"Cohort 8 (3.9 mg/m^2), 4 Hr",5227 ± 8362 pg/mL
same,MIP-1β plasma level,"Cohort 8 (3.9 mg/m^2), 4 Hr",7793 ± 10824 pg/mL
same,TNFα plasma level,"Cohort 8 (3.9 mg/m^2), 4 Hr",56.9 ± 48.3 pg/mL
same,G-CSF plasma level,"Cohort 8 (3.9 mg/m^2), 8 Hr",2151 ± 3586 pg/mL
same,MCP-1 plasma level,"Cohort 8 (3.9 mg/m^2), 8 Hr",8128 ± 10588 pg/mL
same,MIP-1β plasma level,"Cohort 8 (3.9 mg/m^2), 8 Hr",2259 ± 2456 pg/mL
same,TNFα plasma level,"Cohort 8 (3.9 mg/m^2), 8 Hr",42.7 ± 27.4 pg/mL
same,G-CSF plasma level,"Cohort 8 (3.9 mg/m^2), 24 Hr",141.4 ± 228.8 pg/mL
same,MCP-1 plasma level,"Cohort 8 (3.9 mg/m^2), 24 Hr",532 ± 571 pg/mL
same,MIP-1β plasma level,"Cohort 8 (3.9 mg/m^2), 24 Hr",276 ± 108 pg/mL
same,TNFα plasma level,"Cohort 8 (3.9 mg/m^2), 24 Hr",24.2 ± 9.4 pg/mL
